Measured values published in the supplement of paper PMC10307832.

Assays:
Assay in all cases: relative viability (nuclei count vs DMSO), 5 days (fraction); higher = more cells survive
Metformin + Bortezomib = compound: CN(C)C(=N)NC(=N)N [Metformin] + CC(C)C[C@H](NC(=O)[C@H](Cc1ccccc1)NC(=O)c1cnccn1)B(O)O [Bortezomib] (partner 0.002 µM)
In short: (§1)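 Lung cancer cell lines, seeded in 1536-well plates, were treated the following day by pin tool with a single drug or with five library-drug doses (not always all listed) in √10 steps on top of a fixed anchor-drug dose. Cells were fixed and nuclei stained in one step after 5 days, and nuclei were counted. Relative viability is the nuclei count for treated wells divided by that for vehicle wells, reported as medians of duplicate plates.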

Metformin + Dasatinib = compound: CN(C)C(=N)NC(=N)N [Metformin] + Cc1nc(Nc2ncc(C(=O)Nc3c(C)cccc3Cl)s2)cc(N2CCN(CCO)CC2)n1 [Dasatinib] (partner 0.075 µM)
In short: as §1

Apatinib + Trametinib = compound: N#CC1(c2ccc(NC(=O)c3cccnc3NCc3ccncc3)cc2)CCCC1 [Apatinib] + CC(=O)Nc1cccc(-n2c(=O)n(C3CC3)c(=O)c3c(Nc4ccc(I)cc4F)n(C)c(=O)c(C)c32)c1 [Trametinib] (partner 0.02 µM)
In short: as §1

Apatinib + Foretinib = compound: N#CC1(c2ccc(NC(=O)c3cccnc3NCc3ccncc3)cc2)CCCC1 [Apatinib] + COc1cc2c(Oc3ccc(NC(=O)C4(C(=O)Nc5ccc(F)cc5)CC4)cc3F)ccnc2cc1OCCCN1CCOCC1 [Foretinib] (partner 0.25 µM)
In short: as §1

NCI-H2085 showed a relative viability (Metformin + Bortezomib; first compound 10 µM) of 1.1, a relative viability (Metformin + Bortezomib; first compound 31.62 µM) of 1.05 and a relative viability (Metformin + Bortezomib; first compound 100 µM) of 1.01. It also gave a relative viability (Metformin + Bortezomib; first compound 316.23 µM) of 1.09, a relative viability (Metformin + Bortezomib; first compound 1000 µM) of 1.16 and a relative viability (Metformin + Dasatinib; first compound 10 µM) of 0.327. It also gave a relative viability (Metformin + Dasatinib; first compound 31.62 µM) of 0.336, a relative viability (Metformin + Dasatinib; first compound 100 µM) of 0.333 and a relative viability (Metformin + Dasatinib; first compound 316.23 µM) of 0.306. The relative viability (Metformin + Dasatinib; first compound 1000 µM) was 0.358, the relative viability (Apatinib + Trametinib; first compound 0.08 µM) was 0.608 and the relative viability (Apatinib + Trametinib; first compound 0.253 µM) was 0.53. It also gave a relative viability (Apatinib + Trametinib; first compound 0.8 µM) of 0.39, a relative viability (Apatinib + Trametinib; first compound 2.53 µM) of 0.576 and a relative viability (Apatinib + Trametinib; first compound 8 µM) of 0.426. For the same cell line, the relative viability (Apatinib + Foretinib; first compound 0.08 µM) was 0.991, the relative viability (Apatinib + Foretinib; first compound 0.253 µM) was 1.05 and the relative viability (Apatinib + Foretinib; first compound 0.8 µM) was 0.79. For the same cell line, the relative viability (Apatinib + Foretinib; first compound 2.53 µM) was 0.854 and the relative viability (Apatinib + Foretinib; first compound 8 µM) was 0.817.
Work on LC-2-ad yielded a relative viability (Metformin + Bortezomib; first compound 31.62 µM) of 1.01, a relative viability (Metformin + Bortezomib; first compound 100 µM) of 0.766 and a relative viability (Metformin + Bortezomib; first compound 316.23 µM) of 0.756. The relative viability (Metformin + Bortezomib; first compound 1000 µM) was 0.926, the relative viability (Metformin + Dasatinib; first compound 31.62 µM) was 0.598 and the relative viability (Metformin + Dasatinib; first compound 100 µM) was 0.606. For the same cell line, the relative viability (Metformin + Dasatinib; first compound 316.23 µM) was 0.372, the relative viability (Metformin + Dasatinib; first compound 1000 µM) was 0.44 and the relative viability (Apatinib + Trametinib; first compound 0.08 µM) was 0.94. The relative viability (Apatinib + Trametinib; first compound 0.253 µM) was 0.926, the relative viability (Apatinib + Trametinib; first compound 0.8 µM) was 0.907 and the relative viability (Apatinib + Trametinib; first compound 2.53 µM) was 0.678. It also gave a relative viability (Apatinib + Trametinib; first compound 8 µM) of 0.659, a relative viability (Apatinib + Foretinib; first compound 0.08 µM) of 0.935 and a relative viability (Apatinib + Foretinib; first compound 0.253 µM) of 0.89. For the same cell line, the relative viability (Apatinib + Foretinib; first compound 0.8 µM) was 0.904, the relative viability (Apatinib + Foretinib; first compound 2.53 µM) was 0.947 and the relative viability (Apatinib + Foretinib; first compound 8 µM) was 0.868.
With ChaGo-K-1 the relative viability (Metformin + Bortezomib; first compound 10 µM) was 1.03, the relative viability (Metformin + Bortezomib; first compound 31.62 µM) was 1.03 and the relative viability (Metformin + Bortezomib; first compound 100 µM) was 0.993. The relative viability (Metformin + Bortezomib; first compound 316.23 µM) was 0.972, the relative viability (Metformin + Bortezomib; first compound 1000 µM) was 0.628 and the relative viability (Metformin + Dasatinib; first compound 10 µM) was 0.742. For the same cell line, the relative viability (Metformin + Dasatinib; first compound 31.62 µM) was 0.712, the relative viability (Metformin + Dasatinib; first compound 100 µM) was 0.637 and the relative viability (Metformin + Dasatinib; first compound 316.23 µM) was 0.501. For the same cell line, the relative viability (Metformin + Dasatinib; first compound 1000 µM) was 0.722, the relative viability (Apatinib + Trametinib; first compound 0.08 µM) was 0.902 and the relative viability (Apatinib + Trametinib; first compound 0.253 µM) was 0.93. The relative viability (Apatinib + Trametinib; first compound 0.8 µM) was 0.862, the relative viability (Apatinib + Trametinib; first compound 2.53 µM) was 0.837 and the relative viability (Apatinib + Trametinib; first compound 8 µM) was 0.691. For the same cell line, the relative viability (Apatinib + Foretinib; first compound 0.08 µM) was 0.991, the relative viability (Apatinib + Foretinib; first compound 0.253 µM) was 1 and the relative viability (Apatinib + Foretinib; first compound 0.8 µM) was 0.942. For the same cell line, the relative viability (Apatinib + Foretinib; first compound 2.53 µM) was 0.851 and the relative viability (Apatinib + Foretinib; first compound 8 µM) was 0.745.
With NCI-H23 the relative viability (Metformin + Bortezomib; first compound 10 µM) was 1.07, the relative viability (Metformin + Bortezomib; first compound 31.62 µM) was 1.04 and the relative viability (Metformin + Bortezomib; first compound 100 µM) was 1.04. The relative viability (Metformin + Bortezomib; first compound 316.23 µM) was 1.11, the relative viability (Metformin + Bortezomib; first compound 1000 µM) was 1.28 and the relative viability (Metformin + Dasatinib; first compound 10 µM) was 0.759. The relative viability (Metformin + Dasatinib; first compound 31.62 µM) was 0.876, the relative viability (Metformin + Dasatinib; first compound 100 µM) was 0.833 and the relative viability (Metformin + Dasatinib; first compound 316.23 µM) was 0.499. It also gave a relative viability (Metformin + Dasatinib; first compound 1000 µM) of 0.802, a relative viability (Apatinib + Trametinib; first compound 0.08 µM) of 0.477 and a relative viability (Apatinib + Trametinib; first compound 0.253 µM) of 0.393. It also gave a relative viability (Apatinib + Trametinib; first compound 0.8 µM) of 0.427, a relative viability (Apatinib + Trametinib; first compound 2.53 µM) of 0.426 and a relative viability (Apatinib + Trametinib; first compound 8 µM) of 0.31. For the same cell line, the relative viability (Apatinib + Foretinib; first compound 0.08 µM) was 1, the relative viability (Apatinib + Foretinib; first compound 0.253 µM) was 1.21 and the relative viability (Apatinib + Foretinib; first compound 0.8 µM) was 1.05. The relative viability (Apatinib + Foretinib; first compound 2.53 µM) was 1 and the relative viability (Apatinib + Foretinib; first compound 8 µM) was 1.1.
Cell Line NCI-H647 has a relative viability (Metformin + Bortezomib; first compound 10 µM) of 1.19, a relative viability (Metformin + Bortezomib; first compound 31.62 µM) of 1.15 and a relative viability (Metformin + Bortezomib; first compound 100 µM) of 1.18. It also gave a relative viability (Metformin + Bortezomib; first compound 316.23 µM) of 0.921, a relative viability (Metformin + Bortezomib; first compound 1000 µM) of 1.17 and a relative viability (Metformin + Dasatinib; first compound 10 µM) of 0.226. It also gave a relative viability (Metformin + Dasatinib; first compound 31.62 µM) of 0.231, a relative viability (Metformin + Dasatinib; first compound 100 µM) of 0.567 and a relative viability (Metformin + Dasatinib; first compound 316.23 µM) of 0.221. The relative viability (Metformin + Dasatinib; first compound 1000 µM) was 0.212, the relative viability (Apatinib + Trametinib; first compound 0.08 µM) was 0.547 and the relative viability (Apatinib + Trametinib; first compound 0.253 µM) was 0.501. The relative viability (Apatinib + Trametinib; first compound 0.8 µM) was 0.457, the relative viability (Apatinib + Trametinib; first compound 2.53 µM) was 0.439 and the relative viability (Apatinib + Trametinib; first compound 8 µM) was 0.315. It also gave a relative viability (Apatinib + Foretinib; first compound 0.08 µM) of 1.14, a relative viability (Apatinib + Foretinib; first compound 0.253 µM) of 1.39 and a relative viability (Apatinib + Foretinib; first compound 0.8 µM) of 1.16. It also gave a relative viability (Apatinib + Foretinib; first compound 2.53 µM) of 1.13 and a relative viability (Apatinib + Foretinib; first compound 8 µM) of 0.977.
LXF-289 showed a relative viability (Metformin + Bortezomib; first compound 10 µM) of 0.943, a relative viability (Metformin + Bortezomib; first compound 31.62 µM) of 0.904 and a relative viability (Metformin + Bortezomib; first compound 100 µM) of 0.893. For the same cell line, the relative viability (Metformin + Bortezomib; first compound 316.23 µM) was 0.933, the relative viability (Metformin + Bortezomib; first compound 1000 µM) was 1.01 and the relative viability (Metformin + Dasatinib; first compound 10 µM) was 0.186. For the same cell line, the relative viability (Metformin + Dasatinib; first compound 31.62 µM) was 0.188, the relative viability (Metformin + Dasatinib; first compound 100 µM) was 0.188 and the relative viability (Metformin + Dasatinib; first compound 316.23 µM) was 0.137. For the same cell line, the relative viability (Metformin + Dasatinib; first compound 1000 µM) was 0.236, the relative viability (Apatinib + Trametinib; first compound 0.08 µM) was 0.667 and the relative viability (Apatinib + Trametinib; first compound 0.253 µM) was 0.705. For the same cell line, the relative viability (Apatinib + Trametinib; first compound 0.8 µM) was 0.638, the relative viability (Apatinib + Trametinib; first compound 2.53 µM) was 0.608 and the relative viability (Apatinib + Trametinib; first compound 8 µM) was 0.56. The relative viability (Apatinib + Foretinib; first compound 0.08 µM) was 0.915, the relative viability (Apatinib + Foretinib; first compound 0.253 µM) was 1.02 and the relative viability (Apatinib + Foretinib; first compound 0.8 µM) was 0.984. For the same cell line, the relative viability (Apatinib + Foretinib; first compound 2.53 µM) was 0.954 and the relative viability (Apatinib + Foretinib; first compound 8 µM) was 0.905.
